Test results taken from patent US8999940B2 (Ipsen Pharma S.A.S., priority 2008, dated 2015).

How the values were obtained:
[1] = target: T1, human recombinant GIP receptor (Homo sapiens, UniProt P48546); experiment: In vitro hGIP receptor binding assay
T1 construct: expressed in transfected cells; host or cells: CHO-K1 clonal cells (membrane preparation)
T1 sequence (P48546 22-466): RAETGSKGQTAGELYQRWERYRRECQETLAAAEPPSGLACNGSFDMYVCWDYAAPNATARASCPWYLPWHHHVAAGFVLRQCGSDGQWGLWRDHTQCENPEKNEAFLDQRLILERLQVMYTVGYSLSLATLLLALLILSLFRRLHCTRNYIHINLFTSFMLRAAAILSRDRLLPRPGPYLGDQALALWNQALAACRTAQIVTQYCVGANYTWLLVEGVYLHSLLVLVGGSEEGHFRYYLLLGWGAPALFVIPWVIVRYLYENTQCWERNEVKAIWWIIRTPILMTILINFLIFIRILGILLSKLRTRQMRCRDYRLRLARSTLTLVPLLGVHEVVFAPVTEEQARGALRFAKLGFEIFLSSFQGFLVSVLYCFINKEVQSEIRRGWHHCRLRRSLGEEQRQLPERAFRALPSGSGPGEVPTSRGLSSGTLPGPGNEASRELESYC
Protocol: A. In Vitro hGIP Receptor Binding Assay […] The incubations were terminated by rapid filtration through GF/C filters (pre-soaked in 0.5% polyethylenimine) using a Brandel filtration manifold. Each tube and filter were then washed three times with 5-ml aliquots of ice-cold buffer.

[2] = Human plasma half-life assay; assay type: in vitro ADME; settings: 37° C., LC-MS, read-out: Human Plasma T½ (converted)
Protocol: (§1) B. Human and Rat Plasma Half-Life Assay
(§2) 50 μl was removed at various times, like at 0, 1, 2, 3, 4, 8, 24, 32, 48, 56, 72 hours, mixed with 5 μl formic acid and 150 μL acetonitrile in a microcentrifuge tube, vertexed, and centrifuged for 10 minutes at 10 K rpm. The supernatant was transferred to an injection vial and analyzed by LC-MS. The LC-MS system consisted of an API4000 mass spectrometer with an ESI probe. Positive ion mode and full scan detection were used. HPLC separation was carried out on a Luna 3μ. C8 (2), 2×30 mm column with a gradient from 90% A to 90% B in 10 minutes at a flow rate of 0.3 ml/min. Buffer A was 1% formic acid in water and buffer B was 1% formic acid acetonitrile.

[3] = Rat plasma half-life assay; assay type: in vitro ADME; settings: 37° C., LC-MS, read-out: Rat Plasma T½ (converted)
Protocol: as §1, §2

SMILES	Ki [1]	half-life at 0.1 mg/ml [2]	half-life at 0.1 mg/ml [3]
CC[C@H](C)[C@H](NC(=O)[C@H](CCCCN)NC(=O)[C@H](CC(=O)O)NC(=O)[C@H](CCSC)NC(=O)[C@H](C)NC(=O)[C@@H](NC(=O)C1(NC(=O)[C@H](Cc2ccc(O)cc2)NC(=O)[C@H](CC(=O)O)NC(=O)[C@H](CO)NC(=O)[C@@H](NC(=O)[C@H](Cc2ccccc2)NC(=O)[C@@H](NC(=O)CNC(=O)[C@H](CCC(=O)O)NC(=O)C(C)(C)NC(=O)[C@@H](N)Cc2cccc(O)c2)[C@@H](C)O)[C@@H](C)CC)CCCC1)[C@@H](C)CC)C(=O)N[C@@H](Cc1c[nH]cn1)C(=O)N[C@@H](CCC(N)=O)C(=O)N[C@@H](CCC(N)=O)C(=O)N[C@@H](CC(=O)O)C(=O)N[C@@H](Cc1ccccc1)C(=O)N[C@H](C(=O)N[C@@H](CC(N)=O)C(=O)N[C@@H](Cc1c[nH]c2ccccc12)C(=O)N[C@@H](CC(C)C)C(=O)N[C@@H](CC(C)C)C(=O)N[C@@H](C)C(=O)N[C@@H](CCC(N)=O)C(=O)N[C@@H](CCCCN)C(=O)NCC(=O)N[C@@H](CCCCN)C(=O)N[C@@H](CCCCN)C(=O)N[C@@H](CC(N)=O)C(=O)N[C@@H](CC(=O)O)C(=O)N[C@@H](Cc1c[nH]c2ccccc12)C(=O)N[C@@H](CCCCN)C(=O)N[C@@H](Cc1c[nH]cn1)C(=O)N[C@@H](CC(N)=O)C(=O)N[C@H](C(=O)NC1(C(=O)N[C@@H](CCC(N)=O)C(=O)O)CCCC1)[C@@H](C)CC)C(C)C [Example 26, (30H-Phe^1, Aib^2, A5c^11, 41)hGIP(1-42)-OH]	7.52 nM	26.2 h	48.8 h
CC[C@H](C)[C@H](NC(=O)[C@H](CCCCN)NC(=O)[C@H](CC(=O)O)NC(=O)[C@H](CCSC)NC(=O)[C@H](C)NC(=O)[C@@H](NC(=O)C1(NC(=O)[C@H](Cc2ccc(O)cc2)NC(=O)[C@H](CC(=O)O)NC(=O)[C@H](CO)NC(=O)[C@@H](NC(=O)[C@H](Cc2ccccc2)NC(=O)[C@@H](NC(=O)CNC(=O)[C@H](CCC(=O)O)NC(=O)C(C)(C)NC(=O)[C@@H](N)Cc2cscn2)[C@@H](C)O)[C@@H](C)CC)CCCC1)[C@@H](C)CC)C(=O)N[C@@H](Cc1c[nH]cn1)C(=O)N[C@@H](CCC(N)=O)C(=O)N[C@@H](CCC(N)=O)C(=O)N[C@@H](CC(=O)O)C(=O)N[C@@H](Cc1ccccc1)C(=O)N[C@H](C(=O)N[C@@H](CC(N)=O)C(=O)N[C@@H](Cc1c[nH]c2ccccc12)C(=O)N[C@@H](CC(C)C)C(=O)N[C@@H](CC(C)C)C(=O)N[C@@H](C)C(=O)N[C@@H](CCC(N)=O)C(=O)N[C@@H](CCCCN)C(=O)NCC(=O)N[C@@H](CCCCN)C(=O)N[C@@H](CCCCN)C(=O)N[C@@H](CC(N)=O)C(=O)N[C@@H](CC(=O)O)C(=O)N[C@@H](Cc1c[nH]c2ccccc12)C(=O)N[C@@H](CCCCN)C(=O)N[C@@H](Cc1c[nH]cn1)C(=O)N[C@@H](CC(N)=O)C(=O)N[C@H](C(=O)NC1(C(=O)N[C@@H](CCC(N)=O)C(=O)O)CCCC1)[C@@H](C)CC)C(C)C [Example 35, (Taz^1, Aib^2, A5c^11, 41)hGIP(1-42)-OH]	3.28 nM	74.5 h	50.6 h
CCCC[C@H](NC(=O)[C@H](C)NC(=O)[C@@H](NC(=O)C1(NC(=O)[C@H](Cc2ccc(O)cc2)NC(=O)[C@H](CC(=O)O)NC(=O)[C@H](CO)NC(=O)[C@@H](NC(=O)[C@H](Cc2ccccc2)NC(=O)[C@@H](NC(=O)CNC(=O)[C@H](CCC(=O)O)NC(=O)C(C)(C)NC(=O)[C@@H](N)Cc2ccc(CN)cc2)[C@@H](C)O)[C@@H](C)CC)CCCC1)[C@@H](C)CC)C(=O)N[C@@H](CC(=O)O)C(=O)N[C@@H](CCCCN)C(=O)N[C@H](C(=O)N[C@@H](Cc1c[nH]cn1)C(=O)N[C@@H](CCC(N)=O)C(=O)N[C@@H](CCC(N)=O)C(=O)N[C@@H](CC(=O)O)C(=O)N[C@@H](Cc1ccccc1)C(=O)N[C@H](C(=O)N[C@@H](CC(N)=O)C(=O)N[C@@H](Cc1c[nH]c2ccccc12)C(=O)N[C@@H](CC(C)C)C(=O)N[C@@H](CC(C)C)C(=O)N[C@@H](C)C(=O)N[C@@H](CCC(N)=O)C(=O)N[C@@H](CCCCN)C(=O)NCC(=O)N[C@@H](CCCCN)C(=O)N[C@@H](CCCCN)C(=O)N[C@@H](CC(N)=O)C(=O)N[C@@H](CC(=O)O)C(=O)N[C@@H](Cc1c[nH]c2ccccc12)C(=O)N[C@@H](CCCCN)C(=O)N[C@@H](Cc1c[nH]cn1)C(=O)N[C@@H](CC(N)=O)C(=O)N[C@H](C(=O)N[C@H](C(=O)N[C@@H](CCC(N)=O)C(=O)O)[C@@H](C)O)[C@@H](C)CC)C(C)C)[C@@H](C)CC [Example 21, (4NH2CH2-Phe^1, Aib^2, A5c^11, Nle^14)hGIP(1-42)-OH]	95 nM	> 74 h	6 h
CCCC[C@H](NC(=O)[C@H](C)NC(=O)[C@@H](NC(=O)C1(NC(=O)[C@H](Cc2ccc(O)cc2)NC(=O)[C@H](CC(=O)O)NC(=O)[C@H](CO)NC(=O)[C@@H](NC(=O)[C@H](Cc2ccccc2)NC(=O)[C@@H](NC(=O)CNC(=O)[C@H](CCC(=O)O)NC(=O)C(C)(C)NC(=O)[C@@H](N)Cc2ccc(O)c(Br)c2)[C@@H](C)O)[C@@H](C)CC)CCCC1)[C@@H](C)CC)C(=O)N[C@@H](CC(=O)O)C(=O)N[C@@H](CCCCN)C(=O)N[C@H](C(=O)N[C@@H](Cc1c[nH]cn1)C(=O)N[C@@H](CCC(N)=O)C(=O)N[C@@H](CCC(N)=O)C(=O)N[C@@H](CC(=O)O)C(=O)N[C@@H](Cc1ccccc1)C(=O)N[C@H](C(=O)N[C@@H](CC(N)=O)C(=O)N[C@@H](Cc1c[nH]c2ccccc12)C(=O)N[C@@H](CC(C)C)C(=O)N[C@@H](CC(C)C)C(=O)N[C@@H](C)C(=O)N[C@@H](CCC(N)=O)C(=O)N[C@@H](CCCCN)C(=O)NCC(=O)N[C@@H](CCCCN)C(=O)N[C@@H](CCCCN)C(=O)N[C@@H](CC(N)=O)C(=O)N[C@@H](CC(=O)O)C(=O)N[C@@H](Cc1c[nH]c2ccccc12)C(=O)N[C@@H](CCCCN)C(=O)N[C@@H](Cc1c[nH]cn1)C(=O)N[C@@H](CC(N)=O)C(=O)N[C@H](C(=O)N[C@H](C(=O)N[C@@H](CCC(N)=O)C(=O)O)[C@@H](C)O)[C@@H](C)CC)C(C)C)[C@@H](C)CC [Example 15, (3Br-Tyr^1, Aib^2, A5c^11, Nle^14)hGIP(1-42)-OH]	0.6 nM	50.6 h	22.9 h
CCCC[C@H](NC(=O)[C@H](C)NC(=O)[C@@H](NC(=O)C1(NC(=O)[C@H](Cc2ccc(O)cc2)NC(=O)[C@H](CC(=O)O)NC(=O)[C@H](CO)NC(=O)[C@@H](NC(=O)[C@H](Cc2ccccc2)NC(=O)[C@@H](NC(=O)CNC(=O)[C@H](CCC(=O)O)NC(=O)C(C)(C)NC(=O)[C@@H](N)Cc2c[nH]cn2)[C@@H](C)O)[C@@H](C)CC)CCCC1)[C@@H](C)CC)C(=O)N[C@@H](CC(=O)O)C(=O)N[C@@H](CCCCN)C(=O)N[C@H](C(=O)N[C@@H](Cc1c[nH]cn1)C(=O)N[C@@H](CCC(N)=O)C(=O)N[C@@H](CCC(N)=O)C(=O)N[C@@H](CC(=O)O)C(=O)N[C@@H](Cc1ccccc1)C(=O)N[C@H](C(=O)N[C@@H](CC(N)=O)C(=O)N[C@@H](Cc1c[nH]c2ccccc12)C(=O)N[C@@H](CC(C)C)C(=O)N[C@@H](CC(C)C)C(=O)N[C@@H](C)C(=O)N[C@@H](CCC(N)=O)C(=O)N[C@@H](CCCCN)C(=O)NCC(=O)N[C@@H](CCCCN)C(=O)N[C@@H](CCCCN)C(=O)N[C@@H](CC(N)=O)C(=O)N[C@@H](CC(=O)O)C(=O)N[C@@H](Cc1c[nH]c2ccccc12)C(=O)N[C@@H](CCCCN)C(=O)N[C@@H](Cc1c[nH]cn1)C(=O)N[C@@H](CC(N)=O)C(=O)N[C@H](C(=O)N[C@H](C(=O)N[C@@H](CCC(N)=O)C(=O)O)[C@@H](C)O)[C@@H](C)CC)C(C)C)[C@@H](C)CC [Example 12, (His^1, Aib^2, A5c^11, Nle^14)hGIP(1-42)-OH]	3.18 nM	82.5 h	11 h
